Structures are written as SMILES. Converted amounts (≈) assume the structure as drawn. Records with an inconclusive call do not appear. The source made the active and inactive calls. No rule for the calls is given here.

The subject of the assay is M. tuberculosis H37Rv growth inhibition. Put plainly: Mycobacterium tuberculosis H37Rv growth inhibition, cell based, confirmatory dose response (AID 1949).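 Also: bacteria grown 7 days with compound before Alamar blue readout.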
For the compound `O=C(Nc1nccs1)c1ccc(CSc2ccccc2)o1`, the IC50 was 3.09 µg/mL (≈ 9.77 µM). In the case of `Clc1ccc(OCc2ccccc2Cl)c(CNC2CCCCC2)c1` it was 2.51 µg/mL (≈ 6.89 µM). For `O=C(Nc1cccc(Br)c1)c1ccc(-c2ccc(Cl)cc2)o1` the value was 1.39 µg/mL (≈ 3.69 µM).

For the compound `CCC(C(=O)Nc1ccc(CC(=O)OC)cc1)c1ccccc1` (stereo not given), the IC50 was 0.69 µg/mL (≈ 2.22 µM). In the case of `CCCCCn1c(NCc2ccc(N(C)C)cc2)nc2ccccc21` it was 2.9 µg/mL (≈ 8.62 µM); in that of `CCCCc1cc(=O)oc2cc(OC(C)C(=O)OCC)c(Cl)cc12` (stereo not given), under 0.1 µg/mL; in that of `Oc1cccc(Nc2nc(NCc3ccccc3)c3ccccc3n2)c1`, 0.98 µg/mL (≈ 2.86 µM).

Turning to `CCCCc1ccc(NC(=O)COc2ccc(OCC)cc2)cc1`, the half-inhibitory concentration (IC50) was 4.9 µg/mL (≈ 15 µM). As to `COc1cc(C(=O)Nc2nc3c(s2)CCCC3)c(Br)c(OC)c1OC`, the IC50 was 2.8 µg/mL (≈ 6.55 µM).

In the case of `COc1ccc2cc(-c3nn(-c4ccccc4)cc3CO)ccc2c1`, the IC50 was > 50 µg/mL (inactive). `CC(=O)c1cccc(NC(=S)NC(=O)c2ccc(C(C)(C)C)cc2)c1`: the half-maximal inhibitory concentration (IC50) is 12.5 µg/mL (≈ 35.3 µM). In the case of `Cc1cc(NS(=O)(=O)c2ccc(NC(=O)c3ccc(C(C)(C)C)cc3)cc2)no1` it was 1.76 µg/mL (≈ 4.26 µM); in that of `CC1CCc2nc(NC(=S)NCc3ccco3)sc2C1` (stereo not given), 3.09 µg/mL (≈ 10.1 µM); in that of `CCOC(=O)COc1cc2oc(=O)cc(CC)c2cc1Cl`, 1.43 µg/mL (≈ 4.6 µM). In the case of `COc1cc(NC(=O)c2cc3ccccc3o2)ccc1NC(=O)c1ccccc1Cl` it was 2.31 µg/mL (≈ 5.49 µM); in that of `COc1cc(NC(=O)C(Cl)Cl)c(OC)cc1Cl`, 2.68 µg/mL (≈ 8.98 µM). In the case of `CCOc1ccc(NC(=O)CSc2nnc(-c3ccccc3Cl)o2)cc1` it was 3.35 µg/mL (≈ 8.59 µM). Turning to `Cc1cccc2sc(NC(=O)c3ccc([N+](=O)[O-])cc3Cl)nc12`, the IC50 is 19.4 µg/mL (≈ 55.8 µM). For `CCOc1ccc(Nc2nc(NCc3ccco3)c3ccccc3n2)cc1` the value was 1.36 µg/mL (≈ 3.77 µM); for `O=C(O)c1ccc(-n2nnnc2SCc2ccccc2F)cc1`, > 50 µg/mL (inactive); for `Cc1cc(C)c(C(=O)/C=C/c2cccc([N+](=O)[O-])c2)cc1C`, 0.36 µg/mL (≈ 1.22 µM).

Turning to `CC(C)OC(=O)C(C)Oc1ccc2c(-c3ccccc3)cc(=O)oc2c1` (stereo not given), the IC50 was 1.63 µg/mL (≈ 4.63 µM). For `CCC(C)Oc1ccc(C(=O)NC(=S)Nc2ccc3c(c2)COC3=O)cc1` (stereo not given) the value was 0.55 µg/mL (≈ 1.43 µM). For `Cc1cc(C)c2c(c1)c(-c1ccccc1)c(-c1ccccc1)n2CC(O)CN1CCN(CCO)CC1` (stereo not given) the value was 3.02 µg/mL (≈ 6.24 µM); for `CCc1cccc(NC(=O)c2ccc3ccccc3n2)c1`, 11.4 µg/mL (≈ 41.1 µM). With `O=C(CSc1ccc(Br)cc1)Nc1ccccc1F`, the IC50 is 1.6 µg/mL (≈ 4.7 µM). In the case of `COc1ccc(-c2csc(-c3cccnc3)n2)cc1C` it was 12.9 µg/mL (≈ 45.9 µM); in that of `CCN(CC)c1ccc(NC(=S)Nc2ccc(F)c(Cl)c2)cc1`, 7.64 µg/mL (≈ 21.7 µM). In the case of `Cc1ccc(Nc2nc(NCc3ccco3)c3ccccc3n2)cc1` it was 1.44 µg/mL (≈ 4.36 µM). For `CCCn1c2ccccc2c2nc3ccccc3nc21` the value was > 50 µg/mL (inactive); for `COc1cccc2c(C)nc(Nc3nc4ccccc4c(=O)[nH]3)nc12`, > 50 µg/mL (inactive). On to `Cc1ccc(C(=O)NCCC23CC4CC(CC(C4)C2)C3)cc1`, for which the IC50 is 0.18 µg/mL (≈ 0.605 µM). Take `O=C(Oc1ccc(F)cc1)c1ccc(Oc2ccc([N+](=O)[O-])cc2)cc1`: the IC50 is 1.12 µg/mL (≈ 3.17 µM).

`CC1=CC(C)(C)N2C(=O)C(=O)c3cc(OC(=O)c4ccccc4)cc1c32`: the IC50 is > 50 µg/mL (inactive).

As to `O=c1c2cccc3c2c(nn1CCN1CCCCC1)-c1ccccc1-3`, the IC50 is 2.84 µg/mL (≈ 8.57 µM). For `N#C/C(=C/c1ccc([N+](=O)[O-])o1)c1ccc(C#N)cc1` the value was 2.96 µg/mL (≈ 11.2 µM); for `CCCc1nc2ccccc2n1CC(O)COc1ccc(Br)cc1` (stereo not given), 4.08 µg/mL (≈ 10.5 µM); for `CC(C)(C)c1ccc(C(=O)NC(=S)NCc2cccnc2)cc1`, 2.47 µg/mL (≈ 7.54 µM). In the case of `Cc1cccc(N2CCN(C3=NC(=O)C(=C4CCCCC4)S3)CC2)c1` it was 0.78 µg/mL (≈ 2.19 µM). In the case of `COC(=O)c1ccc(NC(=O)CSc2nnc(-c3ccc(Br)cc3)o2)cc1` it was 5.83 µg/mL (≈ 13 µM); in that of `CC(C)c1ccc(NCCC(=O)c2cccs2)cc1`, 6.34 µg/mL (≈ 23.2 µM). For `CCc1cc2c(=O)c(-c3ccc(OC)cc3)coc2cc1OCC(=O)OC`, the IC50 was 1.19 µg/mL (≈ 3.23 µM). In the case of `COc1ccc(CCNC(=O)c2ccc(C#CC(C)(C)O)s2)cc1` it was under 0.1 µg/mL; in that of `Cc1ccc(O)c(C2=NNC(c3ccc(Cl)cc3)C2)c1` (stereo not given), 4.76 µg/mL (≈ 16.6 µM); in that of `Cc1cc(C)c2c(N)c3cccc(C)c3nc2n1`, > 50 µg/mL (inactive). In the case of `CCOC(=O)c1sc(NC(=S)NC2CCN(Cc3ccccc3)CC2)c(C(=O)OCC)c1C` it was > 50 µg/mL (inactive); in that of `Fc1ccc(Nc2nc(-c3ccccn3)cs2)cc1`, 0.28 µg/mL (≈ 1.03 µM). In the case of `CC(C)OC(=O)CSc1nnc(-c2ccc(N(C)C)cc2)o1` it was under 0.1 µg/mL; in that of `COc1ccc(OCC(=O)Nc2cccc(-c3nc4ccccc4c(=O)o3)c2)cc1`, 37.1 µg/mL (≈ 92.2 µM); in that of `COC(=O)C(C)Sc1nnc(-c2ccc(Br)cc2)o1` (stereo not given), 0.99 µg/mL (≈ 2.88 µM).

Source of the values: PubChem BioAssay AID1949 (Southern Research Institute, 2009).
